The values below come from paper PMC8964227, “IP-Se-06, a Selenylated Imidazo[1,2-a]pyridine, Modulates Intracellular Redox State and Causes Akt/mTOR/HIF-1α and MAPK Signaling Inhibition, Promoting Antiproliferative Effect and Apoptosis in Glioblastoma Cells” (Oxidative Medicine and Cellular Longevity, 2022).

Molecules are shown by their SMILES.

One assay has as its system A172 cells. Description: MTT cytotoxicity assay, A172. It is filed as cell-based, human. The following applies: for IC50: Homo sapiens, A 172, 72 h, MTT; for Selectivity Index (SI): IC50 in normal cell line (HT-22)/IC50 in A172. As for the experimental part:
(§1) Cell viability after treatments with selenylated imidazo[1,2-a]pyridines (IP-Se-01–IP-Se-10) was analyzed by quantitative colorimetric assay with MTT, according to Mosmann. IP-01, a prototype molecule without the addition of the selenium in its structure, was also tested. A172 and HT-22 cells were cultured in 96-well plates (10^4 cells/well). After confluence, cells were exposed to selenylated imidazo[1,2-a]pyridines (0.1, 1, 10, 100, and 1000 μM) for up to 72 h. After this phase, cell medium was removed and the cells were washed twice with PBS and incubated with MTT solution (0.5 mg/mL) for 2 h. The insoluble formazan was dissolved by adding DMSO (100 μL/well), and colorimetric determination of MTT reduction was measured at 550 nm in a multireader Infinite M200 Tecan. Three independent experiments were conducted, and the results are presented as IC50 (half maximal inhibitory concentration).

The next assay deals with HT-22 cells. Description: MTT cytotoxicity assay, HT-22. It is filed as cell-based, mouse. Conditions: Mus musculus, HT-22; 72 h, MTT. As for the experimental part:
as §1

With `c1ccc([Se]c2c(-c3ccccc3)nc3ncccn23)cc1` [IP-Se-09], the values for the IC50 in the assay on A172 cells and with HT-22 cells were 21.8 µM and 6 µM, respectively. In the assay with A172 cells, the “Selectivity Index (SI)” value is listed as 0.3.

As for `Cc1ccn2cc(-c3ccccc3)nc2c1` [IP-01], in the assay on A172 cells, the IC50 is 76.3 µM and the “Selectivity Index (SI)” value turned out to be 2.0. In the assay with HT-22 cells, this molecule displayed an IC50 of 153 µM.

On to `COc1ccc([Se]c2c(-c3ccccc3)nc3cc(C)ccn23)cc1` [IP-Se-03], for which the 50% inhibitory concentration (IC50) was 27.6 µM in the assay on A172 cells and 3.9 µM in the assay with HT-22 cells. Besides, the “Selectivity Index (SI)” value in the assay with A172 cells is listed as 0.1.

For `Cc1ccn2c([Se]c3ccccc3)c(-c3ccccc3)nc2c1` [IP-Se-01], in the assay on A172 cells, the IC50 is 98.8 µM and the “Selectivity Index (SI)” value was 0.7. Besides, the concentration for half-maximal inhibition (IC50) in the assay on HT-22 cells stood at 75.4 µM.

For the molecule `Cc1ccn2c([Se]c3cccs3)c(-c3ccccc3)nc2c1` [IP-Se-07], in the assay with A172 cells, the 50% inhibitory concentration (IC50) was determined as 27.9 µM and the “Selectivity Index (SI)” value came out at 0.4. Also, the IC50 in the assay with HT-22 cells came to 10.7 µM.

As for `Cc1ccn2c([Se]c3cccc4ccccc34)c(-c3ccccc3)nc2c1` [IP-Se-05], the IC50 was 20.8 µM with A172 cells and 206 µM with HT-22 cells. In addition, the “Selectivity Index (SI)” value in the assay with A172 cells is recorded as 9.9.

Consider `Cc1ccc([Se]c2c(-c3ccccc3)nc3cc(C)ccn23)cc1` [IP-Se-02], for which, in the assay on A172 cells, the 50% inhibitory concentration (IC50) was found to be 73.2 µM and the “Selectivity Index (SI)” value was 1.9. Also, the IC50 in the assay on HT-22 cells was found to be 144 µM.

Consider `Cc1ccn2c([Se]c3ccc(Cl)cc3)c(-c3ccccc3)nc2c1` [IP-Se-04], for which the 50% inhibitory concentration (IC50) in the assay on A172 cells was determined as 43.6 µM; in the assay with HT-22 cells it was 306 µM. In addition, in the assay with A172 cells, the “Selectivity Index (SI)” value worked out at 7.0.

As to `CCCC[Se]c1c(-c2ccccc2)nc2cc(C)ccn12` [IP-Se-08], in the assay with A172 cells, half-maximal inhibition (IC50) was put at 20.9 µM and the “Selectivity Index (SI)” value is recorded as 1.5. The midpoint of inhibition in the assay on HT-22 cells, the IC50, lay at 31.2 µM.

Consider `COc1ccc(-c2nc3cc(C)ccn3c2[Se]c2ccccc2)cc1` [IP-Se-10], for which, in the assay with A172 cells, half-maximal inhibition (IC50) required 18.8 µM and the “Selectivity Index (SI)” value amounted to 1.6. In the assay with HT-22 cells, the half-inhibitory concentration (IC50) worked out at 30 µM.
